Measurements as given in patent US9115177B2, “Preparation method of micafungin sodium” (Shanghai Techwell Biopharmaceutical Co., Ltd., priority 2011, dated 2015).
Like-named read-outs stand apart in the source and are kept apart here. Marks after values point to notes of the source that are not given here. Numbered stars: 1 amine (or outer) side, 2 acyl side, 3 side chain; on linkers, the order of the positions; unused ones are H or OH. Bridge positions count the residues as written; N and C are the ends. Square brackets hold non-standard residues; d marks the D form. Peptide text beside a SMILES is read from it. * marks the point of attachment. hTyr(3S-OH,4S-OH,3'-OSO3H) = N[C@H](C(=O)O)[C@H](O)[C@@H](O)c1ccc(O)c(OS(=O)(=O)O)c1; Orn(4R-OH,5R-OH) = O=C([C@H](C[C@@H](O)[C@@H](O)N[*:3])N[*:1])[*:2]; Pro(3S-OH,4S-Me) = C[C@H]1CN[C@H](C(=O)O)[C@H]1O; X1 = CCCCCOc1ccc(-c2cc(-c3ccc(C(=O)*)cc3)no2)cc1; Gln(3R-OH) = NC(=O)C[C@@H](O)[C@H](N)C(=O)O; Hyp = O=C(O)[C@@H]1C[C@@H](O)CN1

Experiments:
[1] = conjugate acid of weak base; cited from earlier work
[2] = pKa values of compounds of benzene sulfonic acid; assay type: physicochemical
Procedure: Generally, there are two ways for preparing acid into sodium salt. One is exchange using cationic resin; the other is via adjusting pH value. Virtually, preparing sodium salt by adjusting pH value is a process of neutralization reaction between acid and base. It includes two types of reactions, i.e. the reaction between strong acid and strong base, and the reaction between […]. If strong base solution is added into strong acid solution for adjusting pH value, there is a sharp change in the pH value of the solution (the change of pH value is illustrated in FIG. 6), and the pH value will be instantly altered by 8. Therefore in the practical production, it is hard to control the pH value and a slightest mistake could lead to an overregulated pH value. In WO2004014879, a 0.1 mol/L NaOH solution was used to adjust pH value to 6-8 for obtaining formula II compound. It was actually a reaction between strong acid and strong base. […] Therefore, theoretically, the method using NaOH solution to adjust pH values for obtaining sodium salt is unsuitable for preparation of formula II compound.

[3] = pH adjustment of formula I compound with 0.1 mol/L NaOH solution, HPLC; assay type: physicochemical; settings: pH adjusted with 0.1 mol/L NaOH solution added dropwise
Procedure: The inventors have repeated the method reported in WO2004014879 for multiple times and analyzed and validated the reported method from the point of view of local pH value.
The method for measuring HPLC purity of Formula I compound is shown as follows.
HPLC analytical column: YMC-ODS 250×4.6 mm, 5 μm
Mobile phase: acetonitrile: phosphate buffer (pH 3.0)=[…]
Column temperature: 35±5° C.
Dilution: phosphate buffer in water
Wave length detected: 210 nm
Volume of sample injection: 10 μl
Retention time of the main peak: approx. 18 min.
According to the purification process for micafungin in WO2004014879, ion exchange was applied to 0.5 g of compound of formula I by using 50 ml of cation exchange resin UBK510L. The product was sampled and analyzed. HPLC purity was determined as 99.54%. […] The product was sampled and analyzed. HPLC purity was determined as 98.01% (See FIG. 2). […] The produce was sampled and analyzed. HPLC purity was determined as 97.90%. […] The product was sampled and analyzed. HPLC purity was determined as 97.81%. […] The product was sampled and analyzed. HPLC purity was determined as 97.75%. […] The product was sampled and analyzed. HPLC purity was determined as 97.67%. […] The product was sampled and analyzed. HPLC purity was determined as 97.59%. […] The product was sampled and analyzed.

Row | Structure (SMILES) | pKa1 [1] | pKa2 [1] | other results
1 | OB(O)O [boric acid] | 9.24 | 12.74^a | pKa3 [1]: 13.80^a
2 | S [hydrosulfuric acid] | 6.88 | 14.15^a | –
3 | O=C(O)CC(O)C(=O)O (centres unmarked) [malic acid] | 3.40^a | 5.13 | –
4 | CCCCCOc1ccc(-c2cc(-c3ccc(C(=O)N[C@H]4C[C@@H](O)[C@@H](O)NC(=O)[C@@H]5[C@@H](O)[C@@H](C)CN5C(=O)[C@H]([C@H](O)CC(N)=O)NC(=O)[C@H]([C@H](O)[C@@H](O)c5ccc(O)c(OS(=O)(=O)O)c5)NC(=O)[C@@H]5C[C@@H](O)CN5C(=O)[C@H]([C@@H](C)O)NC4=O)cc3)no2)cc1 [micafungin, Micafungin] (X1-[Orn(4R-OH,5R-OH)]T[Hyp][hTyr(3S-OH,4S-OH,3'-OSO3H)][Gln(3R-OH)][Pro(3S-OH,4S-Me)]; lactam 1-C) | – | – | pKa [2]: < 1; degradation after pH adjustment (HPLC) [3]: obvious degradation; stability in solution (pH 4.0-6.0): more stable; stability in solution (pH 4.0-7.0): stability is good; stability in solution (pH 4.5-5.5): most stable; stability in solution (pH of solution adjusted to 7): no obvious degradation; stability in solution (solution with high pH value): poor stability
5 | C/C=C/C=C/C(=O)O [sorbic acid] | 4.76 | – | –
6 | O=S(O)O [sulfurous acid] | 1.90^a | 7.20 | –
